Source: PMC7006542, “Characterization of a Plastoglobule-Localized SOUL4 Heme-Binding Protein in Arabidopsis thaliana” (Frontiers in Plant Science, 2020)

Target: T1, recombinant maize (Zea mays) CK2 a-subunit (Biaffin) (Zea mays, UniProt P28523)
T1 construct: gene ACK2; commercial recombinant catalytic alpha subunit (Biaffin)
Assay: in vitro kinase assay, SDS-PAGE and phosphorimager
Type: biochemical
Conditions: protein substrate recombinant AtSOUL4 (3 µg); 25 mM Tris-HCl pH 8.0, 5 mM MgCl2, 1 mM DTT, 25 °C, 30 min; labelled compound; mere turnover

T1 sequence (P28523 whole entry): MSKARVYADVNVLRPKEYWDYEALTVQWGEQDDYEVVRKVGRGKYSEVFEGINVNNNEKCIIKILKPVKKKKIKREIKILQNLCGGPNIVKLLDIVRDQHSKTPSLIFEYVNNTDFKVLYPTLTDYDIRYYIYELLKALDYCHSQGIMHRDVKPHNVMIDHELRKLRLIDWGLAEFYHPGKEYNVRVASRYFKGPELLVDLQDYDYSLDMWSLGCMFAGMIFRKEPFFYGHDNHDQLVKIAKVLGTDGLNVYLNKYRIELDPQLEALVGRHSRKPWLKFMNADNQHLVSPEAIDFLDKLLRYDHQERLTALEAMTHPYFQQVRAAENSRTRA

**Q.** With `Nc1ncnc2c1ncn2[C@@H]1O[C@H](COP(=O)(O)OP(=O)(O)OP(=O)(O)O)[C@@H](O)[C@H]1O` [ATP] as the molecule, how does the “in vitro kinase assay, SDS-PAGE and phosphorimager” value read?
**A.** revealing phosphorylation of SOUL4 both by recombinant maize CKII and stromal fraction
